Measurements taken from patent US7939052B2, “Method of measuring the biological activity of an urotensin II receptor” (priority 2005, dated 2011).
“Also recorded” adds a separate entry of the source. Residues, ends and D or L forms follow the SMILES beside them.

How the values were obtained:
[1] = rat, nicotinic acid administration; cited from earlier work
urotensin II receptor [2] = test: Inhibition of U-II induced increase in the redness or skin temperature of the rat ear; format: in vivo
Description: (§1) Urantide (PUT-3639-P1, Peptide International) was administered or co-administered with U-II (3 μg/kg) to a rat via subcutaneous administration. The lateral inner ear surface temperature of the rat was measured using a Raytek High Performance Infra-red Thermometer at different time points, wherein the time point of Urantide administration or Urantide and U-II co-administration was marked as 0 minute.
(§2) The nitric oxide syntheses inhibitor, N^g nitro-L-arginine methylester (L-NAME), or prostacyclin inhibitor, indomethacin, was administered to the rat alone or in combination with U-II. L-NAME (N5751, Sigma, 100 mg/kg) suspended in saline was administered to a rat via […] (i.p.) administration 4 hour prior to injecting the rat with the U-II. Indomethacin (17378, Sigma, 30 mg/kg) suspended in carboxymethylcellulose was administered to a rat via p.o. (per os, L—by mouth or orally) 2 hours prior to injecting the rat with the U-II. Dexamethasone (D1756, Sigma, 8 mg/kg) suspended in saline was administered to a rat via i.p. 2 hours prior to injecting the rat with the U-II. After taking a pre-dose or baseline ear surface temperature, 0.1 ml of U-II at various concentrations formulated in sterile normal saline was injection subcutaneously to the mid-scapular region of the rat. The lateral inner ear surface temperature of the rat was measured using a Raytek High Performance Infra-red Thermometer at different time points, wherein the time point of U-II injection was marked as 0 minutes.

urotensin II receptor [3] = test: Increase in the redness or skin temperature of the rat ear after administration of the substance; format: in vivo; conditions: data not shown
Description: (§3) The examples described herein used conscious rat as the testing animal, although similar results were also observed from anesthetized rats. Other animals can also be utilized following similar procedures. All procedures involving animals were conducted in an animal facility fully accredited by the American Association for Assessment and Accreditation of Laboratory Animal Care (AAALAC) and in accordance with The Guide for the Care and Use of Laboratory Animals (NIH). Protocols were approved by the Internal Animal Care and Use Committee (IACUC). Results are expressed as mean±s.e. mean. Comparisons between groups were assessed using two-sided Student's t-test. P<0.05 was considered significant.
(§4) Unless otherwise indicated, Rat U-II was obtained from SIGMA (U-7507, St Louis, Mo.). Urantide was purchased from Peptide International (PUT-3639-P1, Louisville, Ky.). Experiments were performed with male, Sprague-Dawley rats (Charles River, Wilmington, Mass.), weighing 250-350 g.
(§5) Rats were acclimated at 18° C. for at least 1 hour before U-II administration. The room temperature was kept at 18° C. throughout ear surface temperature measurements. Rat U-II suspended in sterile saline (0.1 ml) at various concentrations was administered to a conscious rat via unilateral […] (i.p.) injection over a period of 5 second. In the serial dose experiment, serial doses of U-II were administered to a conscious rat via subcutaneous (s.c.) routes. The lateral inner ear surface temperature of the rat was measured using a Raytek High Performance Infra-red Thermometer (Raytek Corp., Santa Cruz, Calif.) at different time points.
as §1
as §2, with “Dexamethasone (D1756, Sigma, 8 mg/kg) suspended in saline was administered to a rat via i.p. 2 hours prior to injecting the rat with the U-II. After taking a pre-dose or baseline ear surface temperature, 0.1 ml of U-II at various concentrations formulated in sterile normal saline was injection subcutaneously to the mid-scapular region of the rat.” left out

urotensin II receptor [4] = molecular target: T1, urotensin II receptor (Rattus norvegicus, UniProt P49684); test: as above; format: in vivo
T1 construct: from tissue; host or cells: whole animal: male Sprague-Dawley rats (Charles River), in vivo
T1 sequence (P49684 1-386): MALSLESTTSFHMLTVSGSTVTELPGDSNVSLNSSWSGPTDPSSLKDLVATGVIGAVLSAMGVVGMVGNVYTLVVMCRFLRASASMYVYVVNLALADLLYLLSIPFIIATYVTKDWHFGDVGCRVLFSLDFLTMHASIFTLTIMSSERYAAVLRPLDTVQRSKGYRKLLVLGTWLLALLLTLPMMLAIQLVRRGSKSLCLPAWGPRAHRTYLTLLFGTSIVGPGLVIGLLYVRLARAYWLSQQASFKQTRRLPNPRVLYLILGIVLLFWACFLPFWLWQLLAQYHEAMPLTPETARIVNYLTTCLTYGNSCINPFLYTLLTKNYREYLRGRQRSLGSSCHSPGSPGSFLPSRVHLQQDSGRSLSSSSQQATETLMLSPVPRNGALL
Description: as §3, §4, §5, §1
as §2, with “Dexamethasone (D1756, Sigma, 8 mg/kg) suspended in saline was administered to a rat via i.p. 2 hours prior to injecting the rat with the U-II. After taking a pre-dose or baseline ear surface temperature, 0.1 ml of U-II at various concentrations formulated in sterile normal saline was injection subcutaneously to the mid-scapular region of the rat.” left out

urotensin II receptor [5] = molecular target: T1, urotensin II receptor; test: Inhibition of U-II induced increase in the redness or skin temperature of the rat ear; format: in vivo; conditions: 150 μg/kg co-administered s.c. with U-II 3 μg/kg
Description: as §1, §2

human UT receptor = molecular target: T2, human UT receptor (Homo sapiens, UniProt Q9UKP6); conditions: CHO cells over-expressing the human UT receptor; cited from earlier work
T2 construct: host or cells: CHO cells over-expressing the human UT receptor
T2 sequence (Q9UKP6 1-389): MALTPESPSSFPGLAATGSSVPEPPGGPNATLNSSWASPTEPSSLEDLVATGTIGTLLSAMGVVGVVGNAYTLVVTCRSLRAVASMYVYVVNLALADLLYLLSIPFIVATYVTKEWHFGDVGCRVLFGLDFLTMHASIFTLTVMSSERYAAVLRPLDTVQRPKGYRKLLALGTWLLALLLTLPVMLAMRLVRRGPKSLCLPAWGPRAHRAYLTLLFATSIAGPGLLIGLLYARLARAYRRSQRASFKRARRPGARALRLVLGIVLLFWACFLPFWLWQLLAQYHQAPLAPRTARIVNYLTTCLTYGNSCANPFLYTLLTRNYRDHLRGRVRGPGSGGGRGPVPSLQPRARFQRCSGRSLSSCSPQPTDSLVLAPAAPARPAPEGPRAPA

UT receptor = molecular target: T3, UT receptor (Rattus norvegicus, UniProt P49684); conditions: competitive UT receptor antagonist, rat aorta; cited from earlier work
T3 construct: pure UT receptor antagonist in rat aorta vasoconstriction assays; host or cells: rat aorta tissue
T3 sequence (P49684 1-386): T1 sequence (P49684 1-386)

[6] = test system: panel of receptor/ion channels; test: Binding to a panel of receptor/ion channels; conditions: data not shown

Compound: O=C(O)c1cccnc1 [nicotinic acid]
- increase of the ear temperature [1]: less than 1.5 °C

Compound: COc1ccc2c(c1)c(CC(=O)O)c(C)n2C(=O)c1ccc(Cl)cc1 [indomethacin]
- effect on U-II induced ear flush or increase of ear temperature (urotensin II receptor [2]; 30 mg/kg p.o. 2 hours prior to U-II 3 μg/kg s.c., 30 mg/kg): blocked
- effect on U-II induced ear flush or increase of ear temperature (urotensin II receptor [2]; 30 mg/kg p.o. 2 hours prior to U-II 3 μg/kg s.c., listed as Indomethacin, 30 mg/kg): abolished
- ear flush or ear surface temperature change, substance alone (urotensin II receptor [3]; 30 mg/kg p.o.): caused no ear flush or ear surface temperature change

Compound: URP: U-II-related peptide, SEQ ID NO: 10, ACFWKYCV, intramolecular disulfide bond (PUT-4408-V, Peptide International)
- redness or skin temperature of the rat after administration (urotensin II receptor [4]; URP 100 μg/kg s.c.): induced an increase in skin temperature; also recorded: induced an increase in the redness or skin temperature

Compound: CC(C)[C@H](NC(=O)[C@@H]1CSSC(C)(C)[C@H](NC(=O)[C@@H](N)CC(=O)O)C(=O)N[C@@H](Cc2ccccc2)C(=O)N[C@H](Cc2c[nH]c3ccccc23)C(=O)N[C@@H](CCCN)C(=O)N[C@@H](Cc2ccc(O)cc2)C(=O)N1)C(=O)O [urantide] (HELM PEPTIDE1{D.[Pen].F.[dW].[Orn].Y.C.V}$PEPTIDE1,PEPTIDE1,2:R3-7:R3$$$V2.0)
- effect on U-II induced ear flush or increase of ear temperature (urotensin II receptor [5]): blocked
- ear flush or ear surface temperature change, substance alone (urotensin II receptor [4]; 150 μg/kg s.c.): caused no ear flush or ear surface temperature changes
- activity at human UT receptor (human UT receptor): potent U-II agonist
- pA2 (UT receptor): 8.3
- binding activity to proteins within a panel of receptor/ion channels [6]: minimal binding activity

Compound: COC(=O)[C@@H](N)CCCNC(=N)N[N+](=O)[O-] [L-NAME, N^g nitro-L-arginine methylester]
- effect on U-II induced ear flush or increase of ear temperature (urotensin II receptor [2]; 100 mg/kg i.p. 4 hour prior to U-II 3 μg/kg s.c., 100 mg/kg): blocked; also recorded: markedly inhibited
- ear flush or ear surface temperature change, substance alone (urotensin II receptor [3]; 100 mg/kg i.p.): caused no ear flush or ear surface temperature change
